Our source for the IC50 values is patent US12528784B2, “Alkynyl-(heteroaryl)-carboxamide HCN1 inhibitors” (Hoffmann-La Roche Inc., priority 2019, dated 2026).

For one test, the target named is T1, HCN4 (Homo sapiens, UniProt Q9Y3Q4).
T1 construct: expressed in transfected cells
T1 sequence (Q9Y3Q4 1-1203): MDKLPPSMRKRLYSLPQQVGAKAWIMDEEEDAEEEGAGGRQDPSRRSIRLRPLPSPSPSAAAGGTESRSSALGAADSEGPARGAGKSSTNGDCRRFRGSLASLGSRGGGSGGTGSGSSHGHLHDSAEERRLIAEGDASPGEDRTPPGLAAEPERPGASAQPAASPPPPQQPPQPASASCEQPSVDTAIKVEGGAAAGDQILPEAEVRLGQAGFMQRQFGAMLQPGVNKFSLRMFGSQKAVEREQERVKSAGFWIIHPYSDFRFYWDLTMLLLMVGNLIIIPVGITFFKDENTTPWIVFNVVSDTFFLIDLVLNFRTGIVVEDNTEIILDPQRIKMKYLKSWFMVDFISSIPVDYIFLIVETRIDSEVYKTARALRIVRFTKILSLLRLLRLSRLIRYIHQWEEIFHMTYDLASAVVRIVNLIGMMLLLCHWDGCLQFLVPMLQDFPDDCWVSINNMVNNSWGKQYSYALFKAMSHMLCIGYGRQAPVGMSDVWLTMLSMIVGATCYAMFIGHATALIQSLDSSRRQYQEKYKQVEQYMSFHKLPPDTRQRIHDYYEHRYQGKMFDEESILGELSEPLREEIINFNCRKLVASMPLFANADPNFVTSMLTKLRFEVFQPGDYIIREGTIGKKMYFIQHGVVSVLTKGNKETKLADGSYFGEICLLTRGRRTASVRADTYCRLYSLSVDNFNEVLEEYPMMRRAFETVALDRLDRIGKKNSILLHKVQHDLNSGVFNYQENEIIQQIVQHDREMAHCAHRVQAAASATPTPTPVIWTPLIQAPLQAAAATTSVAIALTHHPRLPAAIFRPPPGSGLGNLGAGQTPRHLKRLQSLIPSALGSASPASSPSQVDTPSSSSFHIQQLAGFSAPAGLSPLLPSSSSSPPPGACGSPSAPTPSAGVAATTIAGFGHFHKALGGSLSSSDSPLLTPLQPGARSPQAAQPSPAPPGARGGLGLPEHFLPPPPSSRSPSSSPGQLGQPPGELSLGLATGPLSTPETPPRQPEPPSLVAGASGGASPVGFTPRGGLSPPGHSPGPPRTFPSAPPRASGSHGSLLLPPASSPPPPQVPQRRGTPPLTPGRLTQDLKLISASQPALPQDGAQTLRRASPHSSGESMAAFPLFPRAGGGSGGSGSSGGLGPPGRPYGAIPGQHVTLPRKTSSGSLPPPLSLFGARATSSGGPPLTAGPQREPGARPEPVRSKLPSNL
Nature of the test: HCN4 automated patch clamp current inhibition assay (Ionworks Barracuda). The class given is cell-based. The note with it: HEK-293 cells stably expressing HCN4; current inhibition during a hyperpolarizing pulse of -100 mV. On the technique in general: Patch clamp records ionic current or voltage across a cell membrane.

The target of a further test is T2, HCN2 (Homo sapiens, UniProt Q9UL51).
T2 construct: expressed in transfected cells
T2 sequence (Q9UL51 1-889): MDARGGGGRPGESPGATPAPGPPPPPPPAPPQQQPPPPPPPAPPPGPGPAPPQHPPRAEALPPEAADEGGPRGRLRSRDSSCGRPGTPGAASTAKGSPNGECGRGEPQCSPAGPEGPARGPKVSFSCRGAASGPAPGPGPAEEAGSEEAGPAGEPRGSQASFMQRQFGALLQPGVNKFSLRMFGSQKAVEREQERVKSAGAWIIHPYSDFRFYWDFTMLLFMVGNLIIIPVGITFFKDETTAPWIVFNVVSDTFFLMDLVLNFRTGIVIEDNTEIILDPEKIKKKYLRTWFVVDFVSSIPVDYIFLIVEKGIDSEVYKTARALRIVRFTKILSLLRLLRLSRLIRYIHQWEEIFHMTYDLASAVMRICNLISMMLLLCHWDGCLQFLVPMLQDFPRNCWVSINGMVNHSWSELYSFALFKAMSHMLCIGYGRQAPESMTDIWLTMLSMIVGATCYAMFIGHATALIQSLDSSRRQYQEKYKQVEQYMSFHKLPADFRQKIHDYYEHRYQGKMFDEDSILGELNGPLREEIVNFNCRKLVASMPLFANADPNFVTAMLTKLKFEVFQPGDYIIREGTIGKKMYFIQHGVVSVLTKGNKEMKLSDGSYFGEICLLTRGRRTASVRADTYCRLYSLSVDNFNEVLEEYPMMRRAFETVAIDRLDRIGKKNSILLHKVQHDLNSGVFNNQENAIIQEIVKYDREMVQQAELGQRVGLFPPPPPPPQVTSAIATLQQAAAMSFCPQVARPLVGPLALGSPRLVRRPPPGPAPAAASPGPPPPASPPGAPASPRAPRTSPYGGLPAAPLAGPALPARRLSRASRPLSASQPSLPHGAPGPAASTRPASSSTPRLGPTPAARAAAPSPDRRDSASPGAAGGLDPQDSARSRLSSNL
Nature of the test: HCN2 automated patch clamp current inhibition assay (Ionworks Barracuda). The class given is cell-based. The note with it: HEK-293 cells stably expressing HCN2; current inhibition during a hyperpolarizing pulse of -100 mV. Here is the method:
In vitro, high-throughput cellular electrophysiology was employed to detect voltage- and use-dependence of compounds in single concentration screening and IC50 determination for library and medicinal chemistry profiling compounds in 384 well plates.
Cell cultures were maintained in DMEM/F12 cell growth media containing FBS and appropriate antibiotics at 37° C., 5% CO2 for a maximum of 20 passages. At a time point of 40-72 hours prior to assay, the expression of HCN protein in the cells is induced by addition of tetracyclin. Cells may be incubated at 27° C. for 2-24 hours of induction. […] Cells were harvested at 80% confluency and resuspended in extracellular buffer and added to wells. A freshly prepared Escin solution was added to intracellular buffer and applied to establish whole cell recording via perforated patch clampling by APC.
Currents through activated channels were measured directly by APC by employing hyperpolarizing voltage steps. The activation window was increased and stabilized by the addition of cell permeable Br-cAMP. Baselines were established for both use- and voltage-dependence protocols using a −30 mV holding potential and multiple test pulses at −100 mV or by 20 mV steps from −120 to 0 mV, respectively. Test compounds were added after baseline recordings followed by a 10 min incubation, voltage-dependency protocol recording, and use-dependency recording. Data was corrected for baseline and rundown (well based) and normalized for % inhibition (plate based). Five previously reported HCN inhibitors of varying potencies and selectivities and zatebradine were used for run to run and plate to plate quality controls. […] Percent inhibition was analysed at −80, −100, −120 mV of the voltage-dependency protocol and at pulse 0 and 50 of the use-dependency protocols. Selectivity was assessed against HCN2, HCN3, and HCN4 overexpressing cell lines using similar methods. As HCN4 has a slower activation than the other HCN channels, activation was extended to achieve steady state activation.

The term IC50 denotes the concentration that gives 50% inhibition. Take `Cc1ccc(-n2c(C(N)=O)nc(C#Cc3ccnc(Cl)c3C)c2C)cn1` [Example 1, 4-((2-Chloro-3-methylpyridin-4-yl)ethynyl)-5-methyl-1-(6-methylpyridin-3-yl)-1H-imidazole-2-carboxamide]: the IC50 on HCN4 and at HCN2 was over 40 µM in each case.

As to `Cc1ccc(-n2c(C(N)=O)nc(C#Cc3ccnc(Cl)c3F)c2C)cn1` [Example 2, 4-((2-Chloro-3-fluoropyridin-4-yl)ethynyl)-5-methyl-1-(6-methylpyridin-3-yl)-1H-imidazole-2-carboxamide], the 50% inhibitory concentration (IC50) against HCN4 and against HCN2 was over 40 µM throughout.

As to `Cc1ccc(-n2c(C(N)=O)nc(C#Cc3csc(Cl)c3)c2C)cn1` [Example 3, 4-[2-(5-Chlorothiophen-3-yl)ethynyl]-5-methyl-1-(6-methylpyridin-3-yl)imidazole-2-carboxamide], the 50% inhibitory concentration (IC50) at HCN4 and against HCN2 was over 40 µM each time.

`Cc1ccc(-n2c(C(N)=O)nc(C#Cc3cccc(Cl)c3)c2C)cn1` [Example 4, 4-[2-(3-Chlorophenyl)ethynyl]-5-methyl-1-(6-methyl-3-pyridyl)imidazole-2-carboxamide]: the IC50 on HCN4 was over 40 µM; against HCN2, 30.6 µM.

As to `Cc1ccc(-n2c(C(N)=O)nc(C#Cc3cccc(C#N)c3)c2C)cn1` [Example 5, 4-((3-Cyanophenyl)ethynyl)-5-methyl-1-(6-methylpyridin-3-yl)-1H-imidazole-2-carboxamide], the concentration for half-maximal inhibition (IC50) against HCN4 and at HCN2 was over 40 µM throughout.

As for `Cc1ccc(-n2c(C(N)=O)nc(C#Cc3ccnc(Cl)c3)c2C)cn1` [Example 6, 4-(2-Chloro-pyridin-4-ylethynyl)-5-methyl-1-(6-methyl-pyridin-3-yl)-1H-imidazole-2-carboxylic Acid Amide], the IC50 at HCN4 and against HCN2 was over 40 µM each time.

On to `COc1cccc(C#Cc2nc(C(N)=O)n(-c3ccc(C)nc3)c2C)c1` [Example 8, 4-((3-Methoxyphenyl)ethynyl)-5-methyl-1-(6-methylpyridin-3-yl)-1H-imidazole-2-carboxamide], for which the concentration for half-maximal inhibition (IC50) against HCN4 and on HCN2 was over 40 µM in each case.

Take `Cc1cccc(C#Cc2nc(C(N)=O)n(-c3ccc(C)nc3)c2C)c1` [Example 10, 5-Methyl-1-(6-methylpyridin-3-yl)-4-(m-tolylethynyl)-1H-imidazole-2-carboxamide]: the 50% inhibitory concentration (IC50) against HCN4 and against HCN2 was over 40 µM in each case.

As for `Cc1cnc(-n2c(C(N)=O)nc(C#Cc3ccnc(Cl)c3C)c2C)cn1` [Example 23, 4-[2-(2-Chloro-3-methyl-4-pyridyl)ethynyl]-5-methyl-1-(5-methylpyrazin-2-yl)imidazole-2-carboxamide], the IC50 at HCN4 and against HCN2 was over 40 µM each time.

Consider `Cc1c(C#Cc2nc(C(N)=O)n(-c3ccc(Cl)nc3)c2C)ccnc1Cl` [Example 26, 4-[2-(2-Chloro-3-methyl-4-pyridyl)ethynyl]-1-(6-chloro-3-pyridyl)-5-methyl-imidazole-2-carboxamide], for which the IC50 on HCN4 and at HCN2 was over 40 µM each time.

With `COc1ccc(-n2c(C(N)=O)nc(C#Cc3ccnc(Cl)c3C)c2C)cn1` [Example 27, 4-[2-(2-Chloro-3-methyl-4-pyridyl)ethynyl]-1-(6-methoxy-3-pyridyl)-5-methyl-imidazole-2-carboxamide], the half-maximal inhibitory concentration (IC50) on HCN4 and against HCN2 was over 40 µM each time.

Consider `Cc1ccc(-n2c(C(N)=O)nc(C#Cc3ccnc(Cl)c3C)c2C)nc1` [Example 28, 4-[2-(2-Chloro-3-methyl-4-pyridyl)ethynyl]-5-methyl-1-(5-methyl-2-pyridyl)imidazole-2-carboxamide], for which the IC50 against HCN4 and against HCN2 was over 40 µM throughout.

For `Cc1ccc(-n2c(C(N)=O)cc(C#Cc3ccnc(Cl)c3)c2C)cn1` [Example 31, 4-[2-(2-Chloro-4-pyridyl)ethynyl]-5-methyl-1-(6-methyl-3-pyridyl)pyrrole-2-carboxamide], the IC50 at HCN4 and at HCN2 was over 40 µM throughout.

With `Cc1ccc(-c2c(C(N)=O)nc(C#Cc3ccnc(Cl)c3)n2C)cn1` [Example 32, 2-[2-(2-Chloro-4-pyridyl)ethynyl]-1-methyl-5-(6-methyl-3-pyridyl)imidazole-4-carboxamide], the IC50 against HCN4 and on HCN2 was over 40 µM each time.

As to `Cc1ccc(-n2c(C(N)=O)nc(C#Cc3ccnc(Cl)c3)c2C)cc1` [Example 38, 4-[2-(2-Chloro-4-pyridyl)ethynyl]-5-methyl-1-(p-tolyl)imidazole-2-carboxamide], the half-inhibitory concentration (IC50) against HCN4 and against HCN2 was over 40 µM in each case.

As for `Cc1c(C#Cc2ccnc(Cl)c2)nc(C(N)=O)n1-c1ccc(Cl)cc1` [Example 39, 1-(4-Chlorophenyl)-4-((2-chloropyridin-4-yl)ethynyl)-5-methyl-1H-imidazole-2-carboxamide], the IC50 against HCN4 and against HCN2 was over 40 µM in each case.

Turning to `NC(=O)c1nc(C#Cc2ccnc(Cl)c2)cn1-c1ccc(F)cc1` [Example 42, 4-(2-Chloro-pyridin-4-ylethynyl)-1-(4-fluoro-phenyl)-1H-imidazole-2-carboxylic Acid Amide], the IC50 against HCN4 and on HCN2 was over 40 µM in each case.
